Measured values taken from paper PMC9234961 (Journal of Medicinal Chemistry, 2022).
Values after ≈ are worked out from the molar mass of the structure shown. Values joined by “and” are separate entries in the source; they are usually repeats but may differ in a detail not shown here. Equal values may be shown once. Read-outs that look alike come from different tables or passages of the source.

How the values were obtained:
[1] = target: endogenous BCL6 in OCI-Ly1 cells (Homo sapiens, UniProt P41182); experiment: cell-based; conditions: for degradation of BCL6 (in words): OCI-Ly1 MSD assay; for MSD degrader assay [OCI-Ly1] Dmax: mean maximal degradation of BCL6; for MSD degrader assay [OCI-LY1] pDC50 mean: mean of replicates
human BCL6 BTB domain [2] = target: T1, human BCL6 BTB domain (Homo sapiens, UniProt P41182); experiment: biochemical
NMR solubility assay = format: physicochemical; conditions: read-out: Aq. Sol.
Method: 4. Supplementary experimental: physicochemical assays
0.5 mM TCEP, 10% D2O) was pipetted into the same well and mixed by up-down pipetting 3 times to create […]
It was then separated by centrifugation (1000 rpm
The plate was then sealed and incubated at room temperature for 20 hours, […]
165 µL of the supernatant was transferred to a 3 mm NMR tube (Bruker, Part No. Z112272) using liquid handler SamplePro Tube SJ S (Bruker). The concentration of the solubilized compound in solubility sample is measured by quantitative 1H-NMR using a single external standard (200 µM caffeine (Sigma, C1778) in PBS (pH 7.4) with 1% DMSO-d6).
The detail of the NMR method is as following: NMR data was collected on a Bruker Avance Neo 600 spectrometer equipped with a 5 mm TCI-CryoProbe. The 1H spectrum was referenced to the internal deuterated solvent. The operating frequency for 1H was 600 MHz. All NMR data were acquired at the […]
1H-NMR spectrum was acquired using a Bruker standard 1D lc1pngppsf2 pulse sequence with 32 scans.
The sweep width was 6.2 ppm with O1P set to 8.8 ppm, and the FID contained 16k time-domain data points. Relaxation delay was set to 20 sec. Water signal was suppressed. […]

human BCL6 BTB domain [3] = target: T1, human BCL6 BTB domain; conditions: for BCL6 TR-FRET pIC50 mean: mean of replicates
[4] = logD7.4 assay (Chrom log D method); format: physicochemical; conditions: pH 7.4, read-out: Measured logD7.4
Method: Calibration, validation and in-house compounds were prepared at 1mM in 10% DMSO / 90% Trizma solution (100mM Trizma in 75/25 methanol/water). 3 µL standard injections (with needle wash) of all calibration, validation and in-house samples were made onto a Phenomenex Luna C8 column (3µm, 100 x 4.6 mm, 100A, Phenomenex, Torrence, USA). Chromatographic separation at 30°C was carried out using […]
2 mL/min. The gradient was held at 0:100 water:organic for 0.8 minutes, then returned to the starting conditions of 95:5 water:organic for 0.2 minutes. The column was re-equilibrated for 5 minutes at the […]

[5] = Microsomal clearance assay (MLM); format: in vitro ADME; conditions: female, CD1, pH 7.4; mouse liver microsomes, 1 μM compound
Method: (§1) 6. Supplementary experimental: in vitro DMPK assays
(§2) 6.1 Microsomal clearance assay
(§3) Microsomal clearance was determined in female CD1 mice, female Sprague–Dawley rats, and mixed gender human liver microsomes obtained from BioIVT (Peterborough, U.K.) following incubation of 1 μM compound at 37 °C in 0.5 mg/mL microsomal protein, 3 mmol/L MgCl2, 1 mmol/L NADPH, 2.5 mmol/L and 10 mmol/L phosphate buffer (pH 7.4) (all purchased from Sigma-Aldrich, Gillingham, U.K). Reactions were started by addition of the cofactors following 10 min preincubation of microsomes with test compound and were terminated at −1, 0, 5, 10, 15, and 30 min with three volumes of ice-cold methanol containing internal standard. Samples were centrifuged at 2800g for 30 min at 4 °C and the supernatants analyzed.
(§4) Control incubations were prepared as above with omission of cofactors. Compound measurements were […]
(§5) separation with a 3 min gradient of 0.1% formic acid in methanol on a Kinetex C18, 50 × 2.1 mm 2.6 μm UPLC column (Phenomenex, Macclesfield, UK). […]

in vitro [6] = format: in vitro ADME; conditions: bovine; fraction unbound in OCI-Ly1 DC50 assay medium; read-out: fu,media
in vitro [7] = format: in vitro ADME; conditions: PAMPA; pH 7.4, 10 µM, 16 h at 30 °C
[8] = Microsomal clearance assay (HLM); format: in vitro ADME; conditions: both sexes, pH 7.4; human liver microsomes, 1 μM compound
Method: as §1, §2, §3, §4, §5

[9] = Microsomal clearance assay (RLM); format: in vitro ADME; conditions: female, Sprague-Dawley, pH 7.4; rat liver microsomes, 1 μM compound
Method: as §1, §2, §3, §4, §5

[10] = OCI-Ly1, read-out: MSD degrader assay [OCI-LY1] Dmax individual replicates, single replicate values
[11] = read-out: MSD degrader assay [OCI-LY1] DC50 individual replicates, single replicate values
[12] = read-out: MSD degrader assay [OCI-Ly1] DC50, geometric mean, OCI-Ly1 cells, 2 h incubation
[13] = BCL6 TR-FRET IC50 individual replicates, single replicate values
[14] = kinetic solubility by NMR in HEPES buffer at pH 8, 4% DMSO
[15] = read-out: BCL6 TR-FRET IC50, geometric mean, BCOR-AF633 peptide, 2 h incubation
[16] = reversed-phase HPLC on Phenomenex Luna C8 column
[17] = OCI-Ly1, read-out: MSD degrader assay [OCI-Ly1] Dmax, mean maximal degradation of BCL6, OCI-Ly1 cells, 2 h
[18] = read-out: BCL6 TR-FRET IC50 individual replicates, single replicate values

Row | SMILES | Dmax [1, 10] | degradation of BCL6 (in words) [1] | MSD degrader assay [OCI-Ly1] Dmax ([1]; OCI-Ly1 cells, 2 h) | MSD degrader assay [OCI-LY1] pDC50 mean [1] | DC50 [1, 11] | DC50 [1, 12] | MSD degrader assay [OCI-LY1] Dmax individual replicates ([1]; single replicate values) | IC50 (human BCL6 BTB domain [2]; [13]) | solubility kinetic at 20 h (NMR solubility assay; [14]) | BCL6 TR-FRET pIC50 mean (human BCL6 BTB domain [3]) | IC50 (human BCL6 BTB domain [3]; [15]) | chromatographic logD [4, 16] | microsomal CLint at 0.5 h, 1 µM [5] | Dmax [1, 17] | IC50 (human BCL6 BTB domain [3]; [18]) | other results
1 | CC(=O)N[C@@H]1C[C@H](C)CN(c2ncc(Cl)c(Nc3ccc4c(c3)c3c(c(=O)n4C)OCC(F)(F)[C@H](C4CC4)N3)n2)C1 [10a, N-((3R,5S)-1-(5-Chloro-4-(((S)-2-cyclopropyl-3,3-difluoro-7-methyl-6-oxo-1,2,3,4,6,7-hexahydro-[1,4]oxazepino[2,3-c]quinolin-10-yl)amino)pyrimidin-2-yl)-5-methylpiperidin-3-yl)acetamide] | 72.4% | potently degrading isomer | 67% | 8.6565 | 1.7 nM and 2.8 nM | 2.2 nM | 61.63% | 3.4 nM and 4.4 nM and 3.2 nM | 15 µM (≈ 8.82 µg/mL) | 8.4394 | 3.6 nM | 2.8 | 138 µL/min/mg |  |  | 
2 | CC(=O)N[C@H]1C[C@@H](C)CN(c2ncc(Cl)c(Nc3ccc4c(c3)c3c(c(=O)n4C)OCC(F)(F)[C@H](C4CC4)N3)n2)C1 [10b, N-((3S,5R)-1-(5-Chloro-4-(((S)-2-cyclopropyl-3,3-difluoro-7-methyl-6-oxo-1,2,3,4,6,7-hexahydro-[1,4]oxazepino[2,3-c]quinolin-10-yl)amino)pyrimidin-2-yl)-5-methylpiperidin-3-yl)acetamide] | < 30% | nondegrading isomer | > 30% |  | > 2000 nM | > 2000 nM |  | 3.5 nM and 2.6 nM and 2.5 nM | 15 µM (≈ 8.82 µg/mL) | 8.5388 | 2.9 nM | 2.8 | 134 µL/min/mg | < 30% | 3 nM | 
3 | Cn1c(=O)c2c(c3cc(Nc4nc(N5CCC(F)(F)[C@H](CO)C5)ncc4Cl)ccc31)N[C@@H](C1CC1)C(F)(F)CO2 [9b, (S)-10-((5-Chloro-2-((S)-4,4-difluoro-3-(hydroxymethyl)piperidin-1-yl)pyrimidin-4-yl)amino)-2-cyclopropyl-3,3-difluoro-7-methyl-1,2,3,4-tetrahydro-[1,4]oxazepino[2,3-c]quinolin-6(7H)-one] |  | partial degradation | ~45% |  | > 2000 nM | > 2000 nM | 56.1% and 58.2% and 19.9% | 3.4 nM and 3.8 nM and 5 nM | 6.8 µM (≈ 3.96 µg/mL) | 8.3907 | 4.1 nM | 3.2 | 129 µL/min/mg | 44.7% | 4.2 nM | 
4 | Cn1c(=O)c2c(c3cc(Nc4nc(N5CCC(F)(F)[C@@H](O)C5)ncc4Cl)ccc31)N[C@@H](C1CC1)C(F)(F)CO2 (single isomer, unassigned) [8a] | 60.5% | potently degrading isomer | 60% | 8.1499 | 4.3 nM and 11.6 nM and 7.1 nM | 7.1 nM | 50.7% and 67.5% | 3.2 nM and 3.3 nM and 4 nM | 11 µM (≈ 6.26 µg/mL) | 8.4571 | 3.5 nM | 3 | 53 µL/min/mg | 59.6% |  | 
5 | C[C@H]1C[C@@H](N(C)C)CN(c2ncc(Cl)c(Nc3ccc4c(c3)c3c(c(=O)n4C)OCC(F)(F)[C@H](C4CC4)N3)n2)C1 [11a, (S)-10-((5-Chloro-2-((3R,5S)-3-(dimethylamino)-5-methylpiperidin-1-yl)pyrimidin-4-yl)amino)-2-cyclopropyl-3,3-difluoro-7-methyl-1,2,3,4-tetrahydro-[1,4]oxazepino[2,3-c]quinolin-6(7H)-one] | 53.6% | potently degrading isomer | 56% | 8.0099 | 8.3 nM and 8.9 nM and 12.7 nM | 9.8 nM | 60.7% and 54.9% | 3.9 nM and 3 nM | 60 µM (≈ 34.4 µg/mL) | 8.4757 | 3.3 nM | 3.3 | 876 µL/min/mg |  | 3.2 nM and 3.3 nM | 
6 | C[C@@H]1CCCN(c2ncc(Cl)c(Nc3ccc4c(c3)c3c(c(=O)n4C)OCC(F)(F)[C@H](C4CC4)N3)n2)C1 [15b, (S)-10-((5-Chloro-2-((R)-3-methylpiperidin-1-yl)pyrimidin-4-yl)amino)-2-cyclopropyl-3,3-difluoro-7-methyl-1,2,3,4-tetrahydro-[1,4]oxazepino[2,3-c]quinolin-6(7H)-one] | 73.4% | degraders of BCL6 | 72% | 7.4874 | 19.4 nM and 39.6 nM and 44.8 nM | 32.6 nM | 70.6% and 72.2% | 27.6 nM and 22.6 nM | 0 µM | 7.6089 | 24.6 nM | 5 | 204 µL/min/mg | 72.1% | 23.8 nM | 
7 | C[C@H]1C[C@@H](O)CN(c2ncc(Cl)c(Nc3ccc4c(c3)n(CCC(C)(C)O)c(=O)n4C)n2)C1 (relative stereo) [compound 5, 5-((5-Chloro-2-(3-hydroxy-5-methylpiperidin-1-yl)pyrimidin-4-yl)amino)-3-(3-hydroxy-3-methylbutyl)-1-methyl-1,3-dihydro-2H-benzo[d]imidazol-2-one] | 91% |  | 89% | 7.4626 | 66 nM and 18 nM | 35 nM and 34.5 nM | 86.653% | 101 nM and 99.6 nM and 94.3 nM and 86.2 nM |  |  |  |  |  | 88.8% |  | fraction unbound (in vitro [6]): 0.37; DC50 ([1]; read-out: Calculated free DC50 [OCI-Ly1], DC50 corrected with fu,media): 12.4 nM; IC50 (human BCL6 BTB domain [2]; BCL6 TR-FRET IC50, geometric mean, BCOR-AF633 peptide, 2 h incubation): 95 nM; IC50 (human BCL6 BTB domain [2]; BCL6 TR-FRET pIC50 mean, mean of replicates): 95.1 nM; solubility kinetic at 20 h (NMR solubility assay; pH 8, aqueous buffer, kinetic from dmso stock): 40 µM (≈ 19 µg/mL); Papp (in vitro [7]): 23 ×10⁻⁶ cm/s; chromatographic logD [4]: 2.3; microsomal CLint at 1 μM [8]: 28 µL/min/mg; microsomal CLint at 1 μM [5]: 122 µL/min/mg; microsomal CLint at 1 μM [9]: 14 µL/min/mg
